From the supplement of paper PMC10307832

Experiments:
Test in all cases: relative viability (nuclei count vs DMSO), 5 days (fraction); higher = more cells survive
IDH-C35 + Trametinib = compound: Cc1ccccc1C(C(=O)NC1CCCCC1)N(C(=O)Cn1ccnc1C)c1cccc(F)c1 [IDH-C35] + CC(=O)Nc1cccc(-n2c(=O)n(C3CC3)c(=O)c3c(Nc4ccc(I)cc4F)n(C)c(=O)c(C)c32)c1 [Trametinib] (partner 0.02 µM)
Method in brief: (§1)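 Relative viability divides the nuclei count in treated wells by that in vehicle wells. Lung cancer cell lines were seeded in 1536-well plates, dosed by pin tool the next day, and fixed and stained after 5 days in one step with final 0.05% Triton X-100, 1% formaldehyde and 1 ug/ml Hoechst. Dosing was a single drug or a fixed anchor-drug dose plus five library-drug doses (not always all listed) in √10 steps, and values are medians of duplicate plates imaged at 4×.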

IDH-C35 + Pictilisib = compound: Cc1ccccc1C(C(=O)NC1CCCCC1)N(C(=O)Cn1ccnc1C)c1cccc(F)c1 [IDH-C35] + CS(=O)(=O)N1CCN(Cc2cc3nc(-c4cccc5[nH]ncc45)nc(N4CCOCC4)c3s2)CC1 [Pictilisib] (partner 1 µM)
Method in brief: as §1

[1] = compound: CC1=C(C(=NN1)C)CC2=C(C3=C(S2)N(C(=O)N(C3=O)C)CC(C)C)C(=O)N4C[C@@H](CO4)O + Cc1nc(Nc2ncc(C(=O)Nc3c(C)cccc3Cl)s2)cc(N2CCN(CCO)CC2)n1 [Dasatinib] (partner 0.075 µM)
Method in brief: as §1

IDH-C35 + Foretinib = compound: Cc1ccccc1C(C(=O)NC1CCCCC1)N(C(=O)Cn1ccnc1C)c1cccc(F)c1 [IDH-C35] + COc1cc2c(Oc3ccc(NC(=O)C4(C(=O)Nc5ccc(F)cc5)CC4)cc3F)ccnc2cc1OCCCN1CCOCC1 [Foretinib] (partner 0.25 µM)
Method in brief: as §1

| Cell Line | relative viability (IDH-C35 + Trametinib; first compound 0.08 µM) | relative viability (IDH-C35 + Trametinib; first compound 0.253 µM) | relative viability (IDH-C35 + Trametinib; first compound 0.8 µM) | relative viability (IDH-C35 + Trametinib; first compound 2.53 µM) | relative viability (IDH-C35 + Trametinib; first compound 8 µM) | relative viability (IDH-C35 + Pictilisib; first compound 0.08 µM) | relative viability (IDH-C35 + Pictilisib; first compound 0.253 µM) | relative viability (IDH-C35 + Pictilisib; first compound 0.8 µM) | relative viability (IDH-C35 + Pictilisib; first compound 2.53 µM) | relative viability (IDH-C35 + Pictilisib; first compound 8 µM) | relative viability ([1]; first compound 0.0025 µM) | relative viability ([1]; first compound 0.007906 µM) | relative viability ([1]; first compound 0.025 µM) | relative viability ([1]; first compound 0.07906 µM) | relative viability ([1]; first compound 0.25 µM) | relative viability (IDH-C35 + Foretinib; first compound 0.08 µM) | relative viability (IDH-C35 + Foretinib; first compound 0.253 µM) | relative viability (IDH-C35 + Foretinib; first compound 0.8 µM) | relative viability (IDH-C35 + Foretinib; first compound 2.53 µM) | relative viability (IDH-C35 + Foretinib; first compound 8 µM) |
| --- | --- | --- | --- | --- | --- | --- | --- | --- | --- | --- | --- | --- | --- | --- | --- | --- | --- | --- | --- | --- |
| HCC-44 | 1.01 | 1.04 | 1.09 | 1.14 | 1.04 | 0.537 | 0.593 | 0.551 | 0.674 | 0.632 |  |  |  |  |  |  |  |  |  |  |
| HCC-827 | 0.525 | 0.583 | 0.462 | 0.519 | 0.512 | 0.966 | 0.921 | 1.02 | 1.13 | 1.17 | 0.288 | 0.317 | 0.32 | 0.203 | 0.24 | 1.05 | 0.964 | 1.01 | 1.03 | 1.05 |
| NCI-H1623 |  |  |  |  |  |  |  |  |  |  | 0.505 | 0.513 | 0.549 | 0.442 | 0.453 | 0.91 | 0.854 | 0.811 | 0.896 | 0.861 |
| NCI-H2347 | 0.342 | 0.281 | 0.323 | 0.28 | 0.283 | 0.627 | 0.603 | 0.813 | 0.788 | 0.899 | 0.394 | 0.323 | 0.299 | 0.234 | 0.257 | 1.19 | 0.992 | 0.799 | 0.955 | 1.01 |
| PC-14 | 0.645 | 0.695 | 0.735 | 0.768 | 0.705 | 0.712 | 0.685 | 0.641 | 0.575 | 0.642 | 0.281 | 0.261 | 0.254 | 0.278 | 0.269 | 1.03 | 0.909 | 0.978 | 0.988 | 0.889 |
| NCI-H1651 | 0.856 | 0.899 | 0.838 | 0.858 | 0.832 | 0.562 | 0.522 | 0.504 | 0.492 | 0.434 | 0.445 | 0.372 | 0.352 | 0.348 | 0.345 | 0.858 | 0.809 | 0.732 | 0.822 | 0.79 |
| HARA | 0.562 | 0.649 | 0.601 | 0.56 | 0.76 | 0.369 | 0.455 | 0.483 | 0.415 | 0.328 | 0.243 | 0.263 | 0.28 | 0.231 | 0.235 | 0.876 | 0.906 | 0.885 |  | 1.01 |
| NCI-H1650 | 0.548 | 0.599 | 0.614 | 0.644 | 0.504 | 0.607 | 0.576 | 0.557 | 0.4 | 0.511 | 0.425 | 0.362 | 0.287 | 0.457 | 0.227 | 1.11 | 1.13 | 1.23 | 0.879 | 1.14 |
| NCI-H1395 | 1.12 | 1.05 | 1.05 | 0.903 | 0.919 | 0.601 | 0.555 | 0.681 | 0.603 | 0.697 | 0.412 | 0.412 | 0.352 | 0.32 | 0.335 | 0.972 | 0.976 | 1.07 | 0.896 | 0.971 |
| LU99A | 0.527 | 0.643 | 0.56 | 0.527 | 0.524 | 0.337 | 0.299 | 0.326 | 0.317 | 0.361 | 0.584 | 0.502 | 0.533 | 0.508 | 0.462 | 0.939 | 0.915 | 0.81 | 0.69 | 0.85 |
| NCI-H1355 | 0.453 | 0.424 | 0.398 | 0.392 | 0.423 | 0.446 | 0.442 | 0.395 | 0.269 | 0.398 | 0.759 | 0.701 | 0.783 | 0.689 | 0.685 | 1.04 | 1.02 | 0.935 | 0.982 | 1 |
| HCC-78 | 0.757 | 0.869 | 0.777 | 0.713 | 0.761 | 0.211 | 0.243 | 0.199 | 0.243 | 0.219 | 0.392 | 0.486 | 0.374 | 0.366 | 0.236 | 0.586 | 0.57 | 0.563 | 0.555 | 0.525 |
| NCI-H1563 |  |  |  |  |  | 0.646 | 0.682 | 0.662 | 0.619 | 0.619 | 0.503 | 0.439 | 0.418 | 0.404 | 0.491 | 1.01 | 1.01 | 0.872 | 0.907 | 0.774 |
| HCC-15 | 0.37 | 0.395 | 0.428 |  | 0.371 | 0.719 | 0.727 | 0.682 | 0.618 | 0.645 | 0.605 | 0.601 | 0.682 | 0.574 | 0.656 | 1.07 | 0.974 | 0.938 |  | 0.869 |
| EKVX | 0.398 | 0.279 | 0.37 | 0.353 | 0.277 | 0.42 | 0.459 | 0.371 | 0.423 | 0.475 | 0.61 | 0.53 | 0.544 | 0.302 | 0.303 | 0.832 | 1.02 | 0.75 | 0.703 | 0.614 |
| NCI-H2087 | 0.211 | 0.226 | 0.264 | 0.265 | 0.197 | 1.15 | 0.901 | 0.83 | 0.984 | 0.886 | 0.715 | 0.924 | 0.844 | 0.769 | 0.905 | 0.953 | 0.924 | 1.15 |  | 1.17 |
| LK-2 | 0.719 | 0.762 | 0.735 | 0.779 | 0.745 | 0.584 | 0.501 | 0.456 | 0.496 | 0.565 | 0.231 | 0.296 | 0.308 | 0.253 | 0.275 | 1.23 | 1.36 | 1.27 | 1.12 | 1.48 |
